System: fibroblast monolayers
Experiment: Cholesterol efflux from ^3 H-cholesterol labeled fibroblasts to plasma
Type: cell-based, human
Procedure: Fibroblast monolayers were equilibrated with ^3 H-FC-labeled native plasma or with isolated ^3 H-labeled LDL, as specified for each experiment. Following incubation, the dishes were washed with albumin-complete PBS and then (×4) with complete PBS. They were then incubated for 3 min with unlabeled plasma or lipoprotein fractions and the rate of appearance of radioactivity in the medium determined. Samples of medium (100 μl) were immediately chilled in ice water and centrifuged (10 min, 2000× g) at 0-2° C. ^3 H-cholesterol radioactivity in the supernatant was either assayed directly, or fractionated by agarose gel electrophoresis. FC efflux was linear as previously reported (Kawano et al., Biochemistry, 32: 5025-5028 (1993)).
For electrophoresis, 20 μl portions of labeled medium were added to strips of 0.75% w/v agarose in 0.025M barbital buffer (pH 8.6) and separated as previously described (Fielding et al., Biochemistry, 30: 8551-8557 (1991)). 2.5 mm gel fractions were then collected, and radioactivity measured. The location of major lipoprotein classes was determined from strips run simultaneously with whole native plasma equilibrated (60 min, 37° C.) with ^3 H-FC.
^c Percent loss of label from cells prelabeled (10 min, 37° C.

`CCN1C(=O)C=CC1=O` [N-ethylmaleimide] was tested, and the “initial rate of efflux of FC from prelabeled cells to plasma” value was “increased several-fold” and the “% efflux to plasma (3 min)” value (2 mM NEM, 80% v/v plasma-PBS, 37° C., control 13.3 ± 0.1) was 32.4 ± 0.2%.

Source: patent US5922554A, “Inhibition of cellular uptake of cholesterol” (The Regents of the University of California, priority 1996, dated 1999)
